Data reported in patent US20070037751A1, “Uses of secretagogues like ghrelin in cancer cachexia and for stimulating appetite” (priority 2003, published 2007).
Entries after “also recorded” stand apart in the source; their conditions may differ.

Key:
[1] = Daily subcutaneous ghrelin for 8 weeks in gastrectomised and sham-operated mice (Example 7); assay type: in vivo
Protocol: Mice were subjected to gastrectomy or to sham operation. Gastrectomy was carried out by resecting the glandular stomach (antrum and fundus), followed by anastomozing the duodenum and the rumen end-to-end. The mortality associated with gastrectomy was 10%. Some of the gastrectomised and sham-operated mice received a subcutaneous dose of ghrelin (12 nmol) daily for 8 weeks. Controls received saline. […] After 8 weeks the mice were killed by decapitation (16-18 h after the last injection). Blood was collected and plasma stored at −20° C. for measurement of ghrelin (see below). Lean tissue was analysed by dual energy x-ray absorptiometry (DXA) (PIXImus, Lunar Corporation, Madison, […]., USA). White adipose tissue (WAT) (mesenteric, retroperitoneal-renal, gonadal and inguinal) and intrascapular brown adipose tissue (BAT) was dissected out and weighed
(§1) Measurement of circulating ghrelin: If not otherwise stated, determination of circulating ghrelin was carried out on plasma from animals at sacrifice (end-point analysis). Immunoactive ghrelin was measured in 20 pi plasma with a radioimmunoassay (RIA) that uses an antiserum raised against acylated human ghrelin (Phoenix Pharmaceuticals); ^125I-labelled ghrelin-28 was used as a tracer a rat ghrelin-28 as standard. […] Plasma concentrations were expressed as pmol equivalents of rat ghrelin-28 per liter. Active (octanoylated) ghrelin was determined in 50 μl plasma using an enzyme linked immunosorbent assay (ELISA) kit (LINCO Research, St. Charles, Mo., USA).
Statistical analysis: Values are expressed as means±S.E.M. Differences were analyzed by the student t-test or by one-way analysis of variance (ANOVA), using Bonferroni's multiple comparison test. A p value of less than 0.05 was considered statistically significant.

[2] = continuous intravenous infusion for 270 minutes, 5 pmol/kg/min; cited from earlier work
growth hormone = assay: Plasma growth hormone before and after subcutaneous ghrelin in a cancer cachexia patient (Example 4); assay type: in vivo, human; settings: before and after the two subcutaneous injections, 0.8 to 1.5 micrograms/kg twice daily, one patient
Protocol: (§2) The patient was treated with subcutaneous injections of 0.8 to 1.5 micrograms/kg ghrelin twice daily for 4 weeks. The injections were taken before meals.
Pharmacokinetic and pharmacodynamic assessment was performed at day 1 and 2 by blood sampling before and after each injection and measurement of plasma levels of growth hormone and active and total ghrelin.

[3] = Plasma ghrelin after subcutaneous bolus injection of ghrelin in mice (Example 6); assay type: in vivo
Protocol: as §1, with “6+6 mice received 12 or 24 nmol” for “Measurement”, “of” for “of circulating ghrelin: If not otherwise stated, determination of circulating”, “by a subcutaneous bolus injection in the neck (corresponding to 400 and 800 nmol kg^−1, respectively). […]” for “was carried out on plasma from animals at sacrifice (end-point analysis).”, “μl” for “pi”

[4] = Pharmacokinetics of ghrelin formulations after subcutaneous administration in rats (Examples 9 and 10); assay type: in vivo, Sprague Dawley rats; set-up: Tmax: dose or concentration left out as unconfirmed; settings: rat
Protocol: Two different types of liposomes were made containing dipalmitoyl DL-α-phosphatidylcholine (DPPC ) and a mixture of phosphatidylcholin and cholesterol (PC/Chol), respectively. The liposomes were prepared by dissolving and mixing the lipids in chloroform. Chloroform was removed overnight by rotation evaporation, and the resulting lipid film was first striped with ethanol (99,9%) and then left overnight in the rotation evaporator. The multilamellar liposomes were formed by hydration in HEPES-buffer (10 mM HEPES, 50 mM KCl, 1mM NaN3, pH=5,5) for at least 1 h. The hydration temperature was 51° C. (10° C. above the Tm of the phospholipids). Subsequently, the liposomes were sonicated for 30 sec every 10 min during one hour using a tip sonicator. One hundred nanometer unilamellar liposomes were made from the multilamellar liposomes by extrusion through 100 nm polycarbonate filters. Size measurements were performed by dynamic light scattering (DLS) using a Zetasizer 4 (Malvern, UK). Tm were determined by Differential Scanning Caleometry (DSC; MicroCal™ Incorporated). Ghrelin were added approximately 2 h before the administration of the formulation to the animals in doses of 60 μg per 500 μL
Intralipid 30% were purchased from the local Pharmacy on the Danish University Hospital Copenhagen (Rigshospitalet). 1000 mL contain: purified soybean oil 300 g, purified egg phospholipids 12 g, glycerol anhydrous 16.7 g, water for injection q.s. ad 1 000 mL. pH is adjusted with sodium hyroxide to pH approximately 7.5.
Animals: Thirty (30) male Sprague Dawley rats (aged 6-7 weeks; approximately 300 g; Charles River, Germany) were used. Upon arrival at the animal facility, they were housed 3 per cage for one week, and subsequently transferred to individual cages with access to food and water ad libitum.
After one week of singly housing, the rats were ready for experiments and were randomized into 5 weight-matched groups (6 pr. group):
All compounds were administered by subcutaneous administration (0.5 ml/300g rat)
On the experimental day (0800-0930), 15 minute prior to receiving the test dose, a 200 μl blood sample was drawn from the tail vein. At time point 0 a second blood sample was drawn and immediately after rats received an sc injection with test compound according to the groups listed above. Seven more samples were drawn (volume 200 μl) at time points: 15, 30, 45, 60, 90, 120 and 240 minutes post injection according to study outline. The total blood volume drawn was 1800 μl (approx. 10% of total blood volume).
Blood samples were kept on ice until plasma separation could be performed. After centrifugation (4000 rpm for 10 minutes) plasma was transferred to vials/tubes containing 5 μL 1N HCl og 5 μL 2mg/mL solution of Phenylmethylsulfonyl fluoride in isopropanol.
The active (acylated) ghrelin in the plasma samples was measured by use of a RIA assay (Linco Research, Inc) according to the manufactures protocol.

[5] = Clinical follow-up of a cancer cachexia patient treated with ghrelin (Example 4); assay type: in vivo, human
Protocol: as §2
The patient was followed weekly by standard laboratory tests, Cachexia/anorexia and quality of life questionnaires, body-weight, body-composition analysis (DEXA-scan) and chest-x-ray or thorax-CT among others.

[6] = as above; assay type: in vivo, human; settings: weekly IV injections, before the subcutaneous treatment
[7] = infusion for 90 minutes, cancer cachexia patients; cited from earlier work
[8] = gastrectomised mice, 12 nmol sc daily, 8 weeks
[9] = ghrelin (200 mg/kg) in a buffer
[10] = subcutaneous 0.8 to 1.5 micrograms/kg twice daily for 4 weeks, one patient

CCCCCCCC(=O)OC[C@H](NC(=O)[C@H](CO)NC(=O)CN)C(=O)N[C@@H](Cc1ccccc1)C(=O)N[C@@H](CC(C)C)C(=O)N[C@@H](CO)C(=O)N1CCC[C@H]1C(=O)N[C@@H](CCC(=O)O)C(=O)N[C@@H](Cc1cnc[nH]1)C(=O)N[C@@H](CCC(N)=O)C(=O)N[C@@H](CCCNC(=N)N)C(=O)N[C@H](C(=O)N[C@@H](CCC(N)=O)C(=O)N[C@@H](CCC(N)=O)C(=O)N[C@@H](CCCNC(=N)N)C(=O)N[C@@H](CCCCN)C(=O)N[C@@H](CCC(=O)O)C(=O)N[C@@H](CO)C(=O)N[C@@H](CCCCN)C(=O)N[C@@H](CCCCN)C(=O)N1CCC[C@H]1C(=O)N1CCC[C@H]1C(=O)N[C@@H](C)C(=O)N[C@@H](CCCCN)C(=O)N[C@@H](CC(C)C)C(=O)N[C@@H](CCC(N)=O)C(=O)N1CCC[C@H]1C(=O)N[C@@H](CCCNC(=N)N)C(=O)O)C(C)C [ghrelin]
plasma ghrelin concentration 16-18 h after injection ([1]; 12 nmol sc daily for 8 weeks, 16-18 h after the last injection): elevated
amount of fat (fat depots) [1, 8]: normalized the fat depots
amount of lean tissue (lean body mass, DXA) [1, 8]: reversed the effect; also recorded: normalized
body weight raised [1, 8]: 8%
lean body mass, ghrelin versus saline ([1]; sham-operated mice, 12 nmol sc daily, 8 weeks): no difference
food intake [2]: increase in food intake
increase in plasma growth hormone levels (growth hormone): more than 5 fold
plasma ghrelin 6 h after injection ([3]; 12 nmol sc, 6 h): still elevated
plasma concentration of active (octanoylated) ghrelin 6 h after injection ([3]; 12 nmol sc, 6 h, n=4): remained high
plasma concentration of active (octanoylated) ghrelin (ELISA) ([3]; 12 nmol sc, n=4): greatly elevated
plasma ghrelin concentration (RIA, octanoylated and des-octanoylated) ([3]; 12 and 24 nmol sc, n=6 in each group): raised
decrease of plasma concentration in the 15 min after the maximum (time point 30 min) [4, 9]: approximately 30%
further decrease of plasma concentration in the following 15 min (time point 45) [4, 9]: ~60%
increase in active ghrelin in plasma [4, 9]: approximately 10 fold
plasma level of active ghrelin after 120 min [4, 9]: slightly increased
plasma level of active ghrelin after 240 min [4, 9]: back to basal level
Tmax ([4]; male, Sprague Dawley, plasma, sc, ghrelin in a buffer, read-out: time of maximal plasma concentration of ghrelin (converted)): 15 min
tumor progression (CT-scans) ([5]; mesothelioma, during the subcutaneous ghrelin treatment, 4 weeks): did not progress
body weight and body composition ([5]; subcutaneous 0.8 to 1.5 micrograms/kg twice daily before meals for 4 weeks, one patient): stable body weight and body composition
ability to eat meals [5, 10]: able to eat full plates of meals and finish these; also recorded: increased objective hunger and ability to eat meals
hunger [5, 10]: did not feel more intensified hunger; also recorded: increased objective hunger
adverse effects ([5]; subcutaneous treatment, 4 weeks): no significant adverse effects
lab values ([5]; subcutaneous treatment, weekly standard laboratory tests): did not show a substantial difference
response to ghrelin treatment [6]: responded well
increase of food intake [7]: 30%
